Results taken from patent US11680268B2, “Methods for improving CRISPR/Cas-mediated genome-editing” (Editas Medicine, Inc., priority 2014, dated 2023).

What was measured:
[1] = test system: HBB locus; assay: Repair outcomes at the HBB locus after Cas9 variant cleavage, Sanger sequencing of Topo clones; type: cell-based, human; conditions: U2OS cells
Text: The different repair outcomes induced in response to DSBs introduced by different Cas9 variants were examined (FIG. 3). […] Several different DNA repair outcomes including, e.g., indel mutations resulting from non-homologous end-joining, alternative NHEJ, HDR homologous recombination (HR) using the closely related HBD gene as an endogenous template, or homology dependent repair using an exogenous donor sequence were characterized.
For some conditions, 50 pmols of single stranded oligonucleotide donor (ss-ODN) was included. Cells were collected 6 days after electroporation and genomic DNA was extracted. PCR amplification of the HBB locus was performed and subcloned into a Topo Blunt Vector. For each condition in each experiment (more the 4 independent samples) 98 colonies were analyses were sequenced with Sanger sequencing and scored for either insertions, deletions, gene conversion or gene corrections.

[2] = test system: HBB locus; assay: Deletion length at the HBB locus after Cas9 variant cleavage; type: cell-based, human; conditions: U2OS cells, gRNAs 8 and 15, 6 days after electroporation
Experimental: In this experiment, the deletions occurring in response to different end structures induced by different Cas9 variants were analyzed. […] Cells were collected 6 days after electroporation and genomic DNA was extracted. PCR amplification of the HBB locus was performed and subcloned into a Topo Blunt Vector. For each condition in each experiment (more the 4 independent samples), 98 colonies were analyses were sequenced with Sanger sequencing. Deletions detected by Sanger sequencing were scored for the exact number of nucleotides deleted.

[3] = test system: HBB locus; assay: Cas9 genome editing at the HBB locus, quantification of repair outcomes (reads); type: cell-based
Text: The data is a representation of at least four independent experiments with a minimum of 350 reads per condition.
FIG. 12B is a graph depicting the percentage of modification observed in U2OS cells edited at the HBB locus with D10A Cas9 and 2 gRNAs with or without BRCA2 or Rad51. FF is a negative control.

Row | Substance | efficacy compared to wildtype Cas9 ([1]; gRNAs HBB-8 and HBB-15) | predominant repair outcome of the induced DSBs ([1]; gRNAs HBB-8 and HBB-15, no exogenous ss-ODN, 6 days after electroporation) | repair using the ss-ODN as a template ([1]; gRNAs HBB-8 and HBB-15, with 50 pmols ss-ODN) | size of deletions [2] | repair pathway of the double strand breaks generated [3] | engagement of the 5′ protruding end in HDR ([3]; PAM facing in the opposite orientation, presence of a single-stranded oligonucleotide donor template nucleic acid)
1 | D10A: Cas9 nickase mutant (RuvC domain catalytic mutant); two gRNAs with PAMs outwards give 5′ protruding arms | comparable levels of efficacy compared to wildtype Cas9 | predominantly repaired by the gene conversion pathway | most efficient repair | mostly larger in nature | – | –
2 | D10A Cas9 mutant: Cas9 nickase with D10A mutation; D10A inactivates RuvC, only HNH activity; leaves 5′ protruding ends | – | – | – | – | predominantly repaired by HR | more prone to be engaged in HDR
